# In US5585234A, “Treatment of infertile sperm in vitro with thymosin α1 to enhance penetration of mammalian ova” (The George Washington University Medical Center, priority 1994, dated 1996):
# Ends that are not written are not given here.
# Experiments:
# Assay type in all cases: cell-based
# human sperm [1] = experiment: Sperm motion analysis (computerized semen analyzer); conditions: for Effect on motility characteristics (velocity, ALH, beat frequency) / Effect on the percentage of motile sperm cells: peptide 0.5 micrograms per hundred microliters; for ALH (amplitude of lateral head displacement) (Mean ± S.D.) / Beat Frequency (Mean ± S.D.) / Linearity (Mean ± S.D.) / Percent Motility / Velocity (Mean ± S.D.): thymosins 0.5 μg/100 μl, 5 to 6 hours
# Description: After incubation with thymosin peptides or their antibodies for 5 to 6 hours as described above, an aliquot (7 microliters) of the sperm suspension was placed into a Makler chamber (Sefi Medical Instruments, Israel) and the sperm motion characteristics measured using a computerized semen analyzer (Cell Soft Cryo Resources, N.Y.). The parameter settings were 30 frames analyzed at an image frequency of 30 Hz, 3 frames minimum sampling for motility, 15 frames minimum sampling for both velocity and amplitude of the lateral head movement ("ALH") measurements, 10 micrometers per second threshold velocity, minimum linearity of 2.5 for ALH measurements and a cell size range of 4-40 pixels with a magnification calibration of 0.688 micrometers per pixel.
# human sperm [2] = experiment: Assessment of acrosin distribution (BAPNA acrosin activity in cells and supernatant); conditions: for Effect on acrosin distribution vs PBS-BSA treated sperm: peptide 0.5 micrograms/100 microliters, with or without ionophore; for Acrosin activity, cells (Mean ± SD) / Acrosin activity, supernatant (Mean ± SD): thymosins 0.5 μg/100 μl
# Description: After incubation with the thymosin peptides or the anti-thymosin antibodies or control antibodies or PBS-BSA and with or without treating with calcium ionophore A23187 for one hour as described above, the sperm cells were centrifuged and the acrosin activity determined in the supernatant and cells by the method of Kennedy et al., J. Androl., 10:21-27 (1989). Ninety microliters of the supernatant or the pelleted sperm cells suspended in 90 microliters of PBS were mixed with one milliliter of the reaction mixture. The reaction mixture comprises one milligram per milliliter of N-benzoyl-dl-arginine-P-nitraniline (BAPNA) hydrochloride in 0.055M HEPES buffer, 0.055M NaCl, 10% v/v (dimethylsulfoxide), 0.1% v/v TRITON X-100 (t-Octylphenoxypolyethoxyethanol). The solution then was incubated for three hours at room temperature. The reaction was stopped by the addition of 100 microliters of 0.5M benzamidine and the absorbance measured at 405 nanometers using a Beckman spectrophotometer. Acrosin activity was expressed as μIU/10^6 spermatozoa. The daily variability of the assay was normalized using a cryopreserved partially-purified human acrosin extract. The preparation of such extracts is taught by Naz et al., J. Cell Sci., 102:487-494 (1992).
# human sperm [3] = experiment: Human sperm penetration assay of zona-free hamster oocytes (SPA); conditions: for Ova penetrated, % of control (mean ± SD): 5-6 hours, sperm of fertile men
# Description: Human sperm penetration assay of zona-free-hamster oocytes (SPA) was performed as described in Naz et al., J. Cell Sci., 102:487-494 (1992). Superovulation was induced in adult female golden hamsters by intraperitoneal injections of 30 IU eCG (pregnant mare serum gonadotropin)(Sigma Chemical Co., St. Louis, Mo.) on day 1 of the cycle. After 55-72 hours, 20 IU hCG (human chorionic gonadotropin) (Sigma) were administered intraperitoneally. 15-17 hours later the animals were sacrificed and the mature unfertilized ova were collected from the oviducts. The ova were separated from the surrounding cumulus cells by incubation with 0.2% hyaluronidase in Biggers, Witten and Wittingham (BWW) medium and from the zonae pellucida by treatment with 0.1% pancreatic trypsin in BWW. The zona-free ova were twice washed in BWW and placed in the center of a tissue culture dish.
# Semen from a fertile person was liquified for 15-30 minutes at 37° C. and the swim-up sperm population was collected. Collection techniques are described in Naz et al., J. Cell Sci., 99:157-165 (1991). The sperm cells from the swim-up were washed with BWW supplemented with 1% BSA (Sigma Chemical Co.) adjusted to 5-10×10^6 motile sperm per milliliter and then allowed to incubate for 5-6 hours at 37° C. ([…]) or polyclonal antisera elicited in response to those immunogens (10-20 microliters of antiserum/100 microliters of sperm suspension) or the same amount of control antibodies (normal rabbit serum, anti-KLH antibodies or anti-HGP-30 antibodies) or the equivalent volume of PBS containing 0.5% BSA (PBS/BSA). After incubation the sperm were washed to remove the unreacted thymosin or anti-thymosin antibody and co-incubated with the zona-denuded hamster oocytes (30-50 eggs/treatment in each assay) for three to four hours. The oocytes were removed, thoroughly washed, fixed with 3% […] and stained with acetocarmine solution. Sperm penetration was determined by the presence of a swollen spermhead with a discernable tail in the cytoplasm of the ovum. Motility of sperm before and after incubation with ova was recorded. The assays were repeated at least three to eight times using different fertile donors and each sample tested with at least 82-480 oocytes.
# The percentage of ova penetrated was calculated according to the following formula; [formula]
# human sperm [4] = experiment: Assessment of acrosomal status (triple stain) of human sperm; conditions: for Effect on capacitation and acrosome reaction of human sperm cells: 0.5 micrograms/microliter, 5-6 hours, with or without ionophore; for Acrosome reacted sperm (%) (Mean ± SD): thymosins 0.5 μg/100 μl
# Description: Motile sperm were collected from fertile men by the swim up procedure as set forth in Naz et al., referenced above. Good quality sperm samples, i.e., (5×10^6 motile sperm per milliliter), greater than 75% motility, +3 to +4 forward progression on a scale of 0 to +5 were incubated with Tα1 or Tβ4 or anti-Tα1 antibodies or anti-Tβ4 antibodies. The controls were treated with the same amount of normal rabbit serum, anti-KLH antibodies, anti-HGP 30 antibodies or PBS-BSA as previously described. After incubation, the spermatozoa were centrifuged, washed in PBS and divided into two aliquots. One aliquot was induced to acrosome react with calcium ionophore (Calcium ionophore A23187 (Sigma)) and incubated with sperm suspension for one hour. The other aliquot was allowed to spontaneously acrosome react without treating with calcium ionophore. Calcium ionophore treatment was carried out to induce acrosome reaction of the capacitated sperm. The acrosomal status was assessed using the triple stain procedure described by Jager et al., Arch. Androl., 12:53-58 (1984). The sperm were washed twice in PBS and then incubated at 37° C. for fifteen minutes with 2% Trypan blue (Sigma 1:1 v/v) in PBS. After incubation, the sperm were washed twice, fixed in three percent glutaraldehyde, 0.1M cacodylate buffer for sixty minutes and then twice washed again in PBS. A drop of this suspension was placed on a glass slide and allowed to air dry overnight. The dried slide was stained with 0.8% Bismark Brown (Sigma) in deionized water (pH 1.8 with 2N HCl), rinsed in deionized water and stained for 45 minutes at room temperature in 0.8% Rose Bengal (Sigma) in 0.1M cacodylate buffer at pH 6.0. The slides were again washed in deionized water, dehydrated in an alcohol series, cleared in xylene and mounted with permount and a coverslip. A total of 200-500 sperm per sample were evaluated and recorded as either alive or dead. The alive sperm were further evaluated as acrosome-intact or acrosome-non-intact (reacted) sperm. The experiments were repeated 3-5 times using sperm of at least three different fertile donors.
# [5] = peptide 0.1 μg/100 μl sperm suspension
# [6] = peptide 0.5 μg/100 μl sperm suspension
# [7] = peptide 2.0 μg/100 μl sperm suspension
# [8] = peptide 10.0 μg/100 μl sperm suspension
Substance,"Effect on motility characteristics (velocity, ALH, beat frequency) (human sperm [1])",Effect on the percentage of motile sperm cells (human sperm [1]),ALH (amplitude of lateral head displacement) (Mean ± S.D.) (human sperm [1]),Beat Frequency (Mean ± S.D.) (human sperm [1]),Linearity (Mean ± S.D.) (human sperm [1]),Percent Motility (human sperm [1]) [%],Velocity (Mean ± S.D.) (human sperm [1]),Effect on acrosin distribution vs PBS-BSA treated sperm (human sperm [2]),"Acrosin activity, cells (Mean ± SD) (human sperm [2]; with ionophore treatment) [μIU/10^6 spermatozoa]","Acrosin activity, supernatant (Mean ± SD) (human sperm [2]; with ionophore treatment) [μIU/10^6 spermatozoa]","Acrosin activity, cells (Mean ± SD) (human sperm [2]; without ionophore treatment) [μIU/10^6 spermatozoa]","Acrosin activity, supernatant (Mean ± SD) (human sperm [2]; without ionophore treatment) [μIU/10^6 spermatozoa]","Ova penetrated, % of control (mean ± SD) (human sperm [3]; [5]) [%]","Ova penetrated, % of control (mean ± SD) (human sperm [3]; [6]) [%]","Ova penetrated, % of control (mean ± SD) (human sperm [3]; [7]) [%]","Ova penetrated, % of control (mean ± SD) (human sperm [3]; [8]) [%]",Effect on capacitation and acrosome reaction of human sperm cells (human sperm [4]),Acrosome reacted sperm (%) (Mean ± SD) (human sperm [4]; with ionophore treatment),Acrosome reacted sperm (%) (Mean ± SD) (human sperm [4]; without ionophore treatment),further results
"thymosin-α1 (SDAAVDTSSEITTKDLKEKKEVVEEAEN; not fully specified; ends and bridges not checked; UniProt P06454 2-29, looked up) [Tα1, Thymus factor peptide; available from Alpha 1 Biomedicals]","significantly affected the velocity, ALH and beat frequency",No effect,4.0 ± 0.3,13.7 ± 0.6,3.9 ± 0.6,80.3 ± 6.2,61.1 ± 3.0,significantly higher quantity of acrosin concentration released in the supernatant and a lower quantity of acrosin concentration in the sperm cells,30.6 ± 7.2,68.2 ± 16.6,64.5 ± 6.4,27.5 ± 13.4,251.0 ± 36.3,204.0 ± 13.9,100.5 ± 0.7,102.2 ± 18.9,significantly enhanced capacitation and acrosome reaction,69.2 ± 3.6,18.5 ± 3.5,"Fold increase of percentage of ova penetrated compared to PBS-BSA-treated control sperm (human sperm [3]; 0.05 to 0.5 μg Tα1/100 μl sperm suspension, P<0.001): up to 2.6 fold; Ova penetrated, % of control (mean ± SD) (human sperm [3]; peptide 0.01 μg/100 μl sperm suspension): 120.3 ± 11.6%; Ova penetrated, % of control (mean ± SD) (human sperm [3]; peptide 0.05 μg/100 μl sperm suspension): 268.2 ± 26.4%"
thymosin-β4 [Tβ4],Neither Tβ4 peptide nor the control antibodies affected any motility characteristics,No effect,3.7 ± 0.4,13.1 ± 0.3,4.0 ± 0.6,76.0 ± 4.3,58.5 ± 2.6,no significant effect,38.5 ± 7.1,52.8 ± 16.2,76.5 ± 9.1,21.0 ± 14.4,102.7 ± 6.5,99.7 ± 10.1,61.8 ± 27.9,31.5 ± 12.2,did not exhibit a significant effect,61.5 ± 4.8,14.5 ± 2.1,
